≈ marks a conversion by molar mass, not a printed value.
Experiments:
[1] = tested on: Staphylococcus aureus ATCC 25923; test: Broth microdilution MIC, S. aureus ATCC 25923; type: cell-based; settings: 35 °C; for MIC: Staphylococcus aureus, ATCC25923, 18 h, read-out: Minimal inhibitory concentration MIC, Staphylococcus aureus 25923
Procedure: (§1) Newly synthesised compounds’ antibacterial activities were tested in vitro against six aerobic bacteria reference strains: three Gram-positive (Staphylococcus aureus ATCC 25923, methicillin-resistant S. aureus MIKROBANK 14.001 reference strain from National Medicines Institute in Warsaw, and Staphylococcus epidermidis ATCC 12228) and three Gram-negative (Escherichia coli ATCC 25922, Proteus mirabilis ATCC 12453, and Pseudomonas aeruginosa ATCC 9027).
(§2) Bacterial cell suspensions equivalent to 0.5 McFarland (1.5 × 10^8 CFU/ml) were prepared in 0.85% sterile saline. Tested compounds’ stock solutions (50 mg/ml) were dissolved in dimethyl sulphoxide (DMSO).
(§3) Bacteria strain susceptibility to tested agents was determined by broth microdilution method. Broth microdilution method was carried out in accordance with Clinical and Laboratory Standards Institute recommendations and was used as reference method. Mueller–Hinton broth containing two-fold dilutions of the tested substances (at concentrations ranging from 3.91 to 1000 µg/ml) was used to determine their minimal inhibitory concentration (MIC) which is the lowest concentration of an antibacterial that will inhibit the visible growth of a microorganism after 18 h of incubation). Mueller–Hinton broth is recommended as the medium of choice for susceptibility testing of commonly isolated, rapidly growing aerobic, or facultative organisms. Gentamicin (KRKA, Slovenia), an aminoglycoside antibiotic active against a wide range of human bacterial infections, mostly Gram-negative bacteria including Pseudomonas, Proteus, Serratia, and the Gram-positive Staphylococcus, was used as a control antibacterial agent (at concentration from 0.12 µg to 1000 µg).
(§4) Tested compounds two-fold dilutions in Mueller–Hinton broth without bacteria were blank control wells (incubated on equal conditions). Polystyrene trays containing 96 wells were filled with serial two-fold Mueller–Hinton broth dilutions of tested agents. Next, the broth was inoculated with 20 μl of 0.5 McFarland microbial suspension (previously diluted 1:10 by Mueller–Hinton broth). Total volume per each well was 200 μl. After incubation (at 35 °C for 18 h), bacterial cultures’ optical density was measured by microplate reader (BioTek Synergy H4 Hybrid Reader) at 600 nm. The MIC values were determined by the comparison of broth bacterial culture OD600 containing tested concentrations of examined substances to blank control wells.

[2] = tested on: methicillin-resistant S. aureus MIKROBANK 14.001; test: Broth microdilution MIC, methicillin-resistant S. aureus; type: cell-based, Staphylococcus aureus; settings: methicillin-resistant strain, 18 h, 35 °C; for MIC: Staphylococcus aureus, read-out: Minimal inhibitory concentration MIC, Staphylococcus aureus MIKROBANK 14.001
Procedure: as §1, §2, §3, §4

[3] = tested on: Staphylococcus epidermidis ATCC 12228; test: Broth microdilution MIC, S. epidermidis ATCC 12228; type: cell-based; settings: 35 °C; for MIC: Staphylococcus epidermidis, ATCC12228, 18 h, read-out: Minimal inhibitory concentration MIC, Staphylococcus epidermidis 12228
Procedure: as §1, §2, §3, §4

[4] = tested on: human lung carcinoma (A549); test: MTT antiproliferative assay, A549 cells; type: cell-based; settings: for IC50: Homo sapiens, A549 cells, MTT, 48 h exposure, read-out: IC50 [µg/ml] ± SEM, A549; for SI [IC50BJ/IC50], A549: safety index = IC50 normal cells (BJ)/IC50 A549
Procedure: (§5) The experiment was carried out using normal human skin fibroblasts (BJ) and tumour cell lines: human lung carcinoma (A549), human hepatocellular carcinoma (HepG2), and human breast adenocarcinoma (MCF-7). All cell lines were obtained from ATCC (American Type Culture Collection, England, UK) and cultured in the appropriate, recommended by ATCC, culture medium, additionally supplemented with 10% foetal bovine serum and antibiotics: 100 U/ml penicillin and 100 µg/ml streptomycin. The cells were maintained at 37 °C in a humidified atmosphere of 5% CO2 and 95% air. Antiproliferative activity of the new compounds was assessed by, commonly used for this purpose, colorimetric MTT assay. Cells with active mitochondrial dehydrogenases reduced intracellularly the tetrazolium dye into purple formazan, which is proportional to the number of viable cells. The cells were seeded in 96-multiwell plates in 100 μl of the appropriate complete culture medium at a concentration of 7 × 10^3 cells/well in the case of BJ cells (normal fibroblasts), 1 × 10^4 cells/well in the case of A549 cells (lung cancer), 1.5 × 10^4 cells/well in the case of HepG2 cells (liver cancer), and 2 × 10^4 cells/well in the case of MCF-7 cells (breast cancer) so as to obtain 60–70% confluent culture after 24 h of incubation at 37 °C – the cells are then in the log (logarithmic) phase, during a period of active proliferation, but still have an unoccupied space to divide. Afterwards, the culture medium was discarded and replaced with 100 µl of different concentrations of new tested compounds and reference antiproliferative agent: irinotecan. The stock solutions of the compounds were prepared in DMSO, and solvent control was being tested concurrently to exclude toxicity attributed to DMSO. Ten serial two-fold dilutions using culture medium were performed to prepare different concentrations of the tested compounds, and the highest tested concentration was 200 µg/ml. Untreated cells (maintained in the complete culture medium) served as a negative control. After exposing cells for 48 h to the tested derivatives, the MTT assay was performed as described earlier. Three independent experiments (n = 3) were performed in a quadruplicate. The obtained data were analysed using GraphPad Prism 5, version 5.03 software (La Jolla, CA). […] Moreover, safety index (SI) was calculated using the following formula: SI=IC50normal cells (BJ)/IC50cancer cells

[5] = tested on: human hepatocellular carcinoma (HepG2); test: MTT antiproliferative assay, HepG2 cells; type: cell-based; settings: for IC50: Homo sapiens, HepG2 cells, MTT, 48 h exposure, read-out: IC50 [µg/ml] ± SEM, HepG2; for SI [IC50BJ/IC50], HepG2: safety index = IC50 normal cells (BJ)/IC50 HepG2
Procedure: as §5

[6] = tested on: human breast adenocarcinoma (MCF-7); test: MTT antiproliferative assay, MCF-7 cells; type: cell-based; settings: for IC50: Homo sapiens, MCF7, MCF-7 cells, MTT, 48 h exposure, read-out: IC50 [µg/ml] ± SEM, MCF-7; for SI [IC50BJ/IC50], MCF-7: safety index = IC50 normal cells (BJ)/IC50 MCF-7
Procedure: as §5

[7] = tested on: normal human skin fibroblasts (BJ); test: MTT assay, normal fibroblasts BJ; type: cell-based; settings: Skin fibroblast, 48 h exposure, read-out: IC50 [µg/ml] ± SEM, BJ
Procedure: as §5

SMILES	MIC [1] [µg/mL]	MIC [2] [µg/mL]	MIC [3] [µg/mL]	melting point [°C]	IC50 [7] [µg/mL]	other results
O=C(CC1SC(=O)NC1=O)Oc1ccc(C=NNC(=O)c2ccc(Cl)cc2Cl)cc1 (stereo not drawn) [Compound 15, 4-{[2-(2,4-Dichlorobenzoyl)hydrazinylidene]methyl}phenyl (2,4-dioxo-1,3-thiazolidin-5-yl)acetate]	500	500	500	196 to 198		
CCc1c2c(nc3ccc(OC(=O)N4CCC(N5CCCCC5)CC4)cc13)-c1cc3c(c(=O)n1C2)COC(=O)[C@]3(O)CC [Irinotecan, irinotecan, reference compound]					38.7 ± 1.37 (≈ 65.9 µM)	IC50 [4]: 39.7 ± 1.2 µg/mL (≈ 67.7 µM); SI [IC50BJ/IC50], A549 [4]: 0.97; IC50 [5]: 14.8 ± 1.24 µg/mL (≈ 25.2 µM); SI [IC50BJ/IC50], HepG2 [5]: 2.62; IC50 [6]: 21.1 ± 1.23 µg/mL (≈ 35.9 µM); SI [IC50BJ/IC50], MCF-7 [6]: 1.84
COc1cc(C=NNC(=O)c2ccc(Cl)cc2Cl)ccc1OC(=O)CC1SC(=O)NC1=O (stereo not drawn) [Compound 17, 4-{[2-(2,4-Dichlorobenzoyl)hydrazinylidene]methyl}-2-methoxyphenyl (2,4-dioxo-1,3-thiazolidin-5-yl)acetate]	250	250	500	186 to 188		
O=C(C=C1SC(=O)NC1=O)Oc1ccc(C=NNC(=O)c2cccc(Cl)c2)cc1 [Compound 20, 4-{[2-(3-Chlorobenzoyl)hydrazinylidene]methyl}phenyl (2,4-dioxo-1,3-thiazolidin-5-ylidene)acetate]				278 to 279	11.3 ± 1.05 (≈ 26.4 µM)	IC50 [5]: 27 ± 1.02 µg/mL (≈ 62.7 µM); SI [IC50BJ/IC50], HepG2 [5]: 0.42
COc1cc(C=NNC(=O)c2cccc(Cl)c2)ccc1OC(=O)CC1SC(=O)NC1=O (stereo not drawn) [Compound 16, 4-{[2-(3-Chlorobenzoyl)hydrazinylidene]methyl}-2-methoxyphenyl (2,4-dioxo-1,3-thiazolidin-5-yl)acetate]				220 to 222	163.3 ± 1.34 (≈ 354 µM)	IC50 [6]: 117 ± 1.23 µg/mL (≈ 254 µM); SI [IC50BJ/IC50], MCF-7 [6]: 1.39
O=C(C=C1SC(=O)NC1=O)Oc1cccc(C=NNC(=O)c2cccc(Cl)c2)c1 [Compound 19, 3-{[2-(3-Chlorobenzoyl)hydrazinylidene]methyl}phenyl (2,4-dioxo-1,3-thiazolidin-5-ylidene)acetate]				282 to 283		
COc1cc(C=NNC(=O)c2cccc(Cl)c2)ccc1OC(=O)C=C1SC(=O)NC1=O [Compound 21, 4-{[2-(3-Chlorobenzoyl)hydrazinylidene]methyl}-2-methoxyphenyl (2,4-dioxo-1,3-thiazolidin-5-ylidene)acetate]				246 to 248	31.4 ± 1.08 (≈ 68.3 µM)	IC50 [5]: 48.4 ± 1.02 µg/mL (≈ 105 µM); SI [IC50BJ/IC50], HepG2 [5]: 0.65; IC50 [6]: 124 ± 1.63 µg/mL (≈ 270 µM); SI [IC50BJ/IC50], MCF-7 [6]: 0.25

Second part, led by results:

MIC [1] [µg/mL]	MIC [2] [µg/mL]	MIC [3] [µg/mL]	melting point [°C]	SMILES	IC50 [7] [µg/mL]	other results
500	500	500	198 to 200	O=C(CC1SC(=O)NC1=O)Oc1cccc(C=NNC(=O)c2ccc(Cl)cc2Cl)c1 (stereo not drawn) [Compound 13, 3-{[2-(2,4-Dichlorobenzoyl)hydrazinylidene]methyl}phenyl (2,4-dioxo-1,3-thiazolidin-5-yl)acetate]		
			215 to 216	O=C(CC1SC(=O)NC1=O)Oc1ccc(C=NNC(=O)c2cccc(Cl)c2)cc1 (stereo not drawn) [Compound 14, 4-{[2-(3-Chlorobenzoyl)hydrazinylidene]methyl}phenyl (2,4-dioxo-1,3-thiazolidin-5-yl)acetate]		
500	500	500	244 to 245	O=C(CC1SC(=O)NC1=O)Oc1cccc(C=NNC(=O)c2cccc(Cl)c2)c1 (stereo not drawn) [Compound 12, 3-{[2-(3-Chlorobenzoyl)hydrazinylidene]methyl}phenyl (2,4-dioxo-1,3-thiazolidin-5-yl)acetate]		
250	250	250	159 to 162	O=C(CC1SC(=O)NC1=O)Oc1ccc(C=NNC(=S)Nc2ccccc2)cc1 (stereo not drawn) [Compound 25, 4-{[2-(Phenylcarbamothioyl)hydrazinylidene]methyl}phenyl (2,4-dioxo-1,3-thiazolidin-5-yl)acetate]		
125	125	125	186 to 187	COc1cc(C=NNC(=S)Nc2ccccc2)ccc1OC(=O)C=C1SC(=O)NC1=O [Compound 28, 2-Methoxy-4-{[2-(phenylcarbamothioyl)hydrazinylidene]methyl}phenyl (2,4-dioxo-1,3-thiazolidin-5-ylidene)acetate]		
			209 to 211	O=C(CC1SC(=O)NC1=O)Oc1cccc(C=NNC(=S)Nc2ccccc2)c1 (stereo not drawn) [Compound 22, 3-{[2-(Phenylcarbamothioyl)hydrazinylidene]methyl}phenyl (2,4-dioxo-1,3-thiazolidin-5-yl)acetate]	81.6 ± 1.11 (≈ 190 µM)	IC50 [4]: 57.3 ± 1.19 µg/mL (≈ 134 µM); SI [IC50BJ/IC50], A549 [4]: 1.43; IC50 [5]: 48.3 ± 1.07 µg/mL (≈ 113 µM); SI [IC50BJ/IC50], HepG2 [5]: 1.69; IC50 [6]: 72 ± 1.1 µg/mL (≈ 168 µM); SI [IC50BJ/IC50], MCF-7 [6]: 1.13
			182 to 184	COc1cc(C=NNC(=S)Nc2ccccc2)ccc1OC(=O)CC1SC(=O)NC1=O (stereo not drawn) [Compound 26, 2-Methoxy-4-{[2-(phenylcarbamothioyl)hydrazinylidene]methyl}phenyl (2,4-dioxo-1,3-thiazolidin-5-yl)acetate]		
125	125	125	199 to 202	O=C(C=C1SC(=O)NC1=O)Oc1ccc(C=NNC(=S)Nc2ccccc2)cc1 [Compound 27, 4-{[2-(Phenylcarbamothioyl)hydrazinylidene]methyl}phenyl (2,4-dioxo-1,3-thiazolidin-5-ylidene)acetate]		Minimal inhibitory concentration MIC, Staphylococcus aureus 25923 ([1]; 18 h): 125 µg/mL; Minimal inhibitory concentration MIC, Staphylococcus aureus MIKROBANK 14.001 [2]: 125 µg/mL; Minimal inhibitory concentration MIC, Staphylococcus epidermidis 12228 ([3]; 18 h): 125 µg/mL

From PMC6010082, “Synthesis and in vitro antiproliferative and antibacterial activity of new thiazolidine-2,4-dione derivatives” (Journal of Enzyme Inhibition and Medicinal Chemistry, 2017)
